Test: recombinant barcode read abundance after kanamycin selection (control-corrected) (log10(CPM+1)); higher = more efficient recombination; sequences stand for … in AGTGCAGAGAAAATCGGCCAGTTTTCTCTGCCTGCAGTCCGCATGCCGT…AGATTTATGCAGCGGACTGCCTTTCTCCCAAAGTGATAAACCGGACAGTATCATGGACCGGTTTTCCCGGTAATCCGTATTTGCAAGGTTGGTTTCACT; site = the 11-nt target
How it was run: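 Recombination efficiency was calculated from barcode counts at recombinant junctions, normalized to counts per million, averaged and corrected by the control. Each value is given as log10(CPM+1). The constructs were Gibson-cloned oligos (promoter, target, barcode, J23119-driven first 104 bridge RNA bases) in a vector with the remaining 73 bp and a T7-inducible recombinase, co-electroporated into E. coli with a donor plasmid and plated in duplicate on chloramphenicol/ampicillin LB agar (control) or chloramphenicol/ampicillin/kanamycin with 0.1 mM IPTG.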
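Note: IS621 recombinase and bridge RNA in Escherichia coli cells.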

| Sequence | recombinant barcode read abundance (log10) |
| --- | --- |
| ATCGGAGCTTGGGTTCTAACCTGTTGCGG (site ATCGGAGCTCA) | 0.135 |
| ATCGGAGCTTGGGTTCTAACCTGTTGCGG (site ATCGGAGCTCC) | 1.7 |
| ATCGGAGCTTGGGTTCTAACCTGTTGCGG (site ATCGGAGCTCG) | 0.424 |
| ATCGGAGCTTGGGTTCTAACCTGTTGCGG (site ATCGGAGCTCT) | 0.592 |
| ATCGTATCTTGGGTTCTAACCTGTTGCGC (site ATCGTATCTGC) | 0.068 |
| ATCGTATCTTGGGTTCTAACCTGTTGCGC (site GGGCAGGCTAG) | 0.832 |
| ATCTCAACTTGGGTTCTAACCTGTTGCCT (site ACCTTAACTAG) | 0.0254 |
| ATCTCAACTTGGGTTCTAACCTGTTGCCT (site ATCTCAACTAG) | 0.118 |
| ATCTTACCTTGGGTTCTAACCTGTTGCCG (site ATCTTACCTCG) | 0.448 |
| ATCTTACCTTGGGTTCTAACCTGTTGCCG (site GTCTTCCCTCG) | 0.11 |
| ATCTTATCTTGGGTTCTAACCTGTTGCCT (site ATCTTAACTAG) | 0.0526 |
| ATCTTATCTTGGGTTCTAACCTGTTGCCT (site ATCTTACCTAG) | 0.262 |
| ATCTTATCTTGGGTTCTAACCTGTTGCCT (site ATCTTAGCTAG) | 0.0977 |
| ATCTTATCTTGGGTTCTAACCTGTTGCCT (site ATCTTATCTAG) | 0.208 |
| ATGAACCCTTGGGTTCTAACCTGTTGCGT (site ATGAACCCTAC) | 1.88 |
| ATGAACCCTTGGGTTCTAACCTGTTGCGT (site TTGAACCCTAC) | 0.659 |
| ATGAAGCCTTGGGTTCTAACCTGTTGCTT (site ATCAAGCCTAA) | 0.0285 |
| ATGAAGCCTTGGGTTCTAACCTGTTGCTT (site ATGAAGCCTAA) | 0.107 |
| ATGACTACTTGGGTTCTAACCTGTTGCTC (site ATGACTACTGA) | 0.423 |
| ATGACTACTTGGGTTCTAACCTGTTGCTC (site ATGACTACTTA) | 0.135 |
| ATGAGGTCTTGGGTTCTAACCTGTTGCTC (site ATGAGCTCTTA) | 0.194 |
| ATGAGGTCTTGGGTTCTAACCTGTTGCTC (site ATGAGGTCTGA) | 1.43 |

| Sequence | recombinant barcode read abundance (log10) |
| --- | --- |
| ATGATTACTTGGGTTCTAACCTGTTGCCT (site ATAGTTACTAG) | 0.0836 |
| ATGATTACTTGGGTTCTAACCTGTTGCCT (site ATGATTACTAG) | 0.385 |
| ATGCAACCTTGGGTTCTAACCTGTTGCCT (site ATGCAAACTAG) | 0.216 |
| ATGCAACCTTGGGTTCTAACCTGTTGCCT (site ATGCAACCTAG) | 0.827 |
| ATGCAACCTTGGGTTCTAACCTGTTGCCT (site ATGCAAGCTAG) | 0.362 |
| ATGCAACCTTGGGTTCTAACCTGTTGCCT (site ATGCAATCTAG) | 0.293 |
| ATGCACCCTTGGGTTCTAACCTGTTGCCT (site ATGCACCCTAG) | 2 |
| ATGCACCCTTGGGTTCTAACCTGTTGCCT (site ATGCGCCCTAG) | 0.977 |
| ATGCCGACTTGGGTTCTAACCTGTTGCCT (site ATGCCAACTAG) | 0.101 |
| ATGCCGACTTGGGTTCTAACCTGTTGCCT (site ATGCCCACTAG) | 0.0898 |
| ATGCCGACTTGGGTTCTAACCTGTTGCCT (site ATGCCGACTAG) | 1.02 |
| ATGCCGACTTGGGTTCTAACCTGTTGCCT (site ATGCCTACTAG) | 0.11 |
| ATGCGAGCTTGGGTTCTAACCTGTTGCCG (site ATGCGAGCTCA) | 0.177 |
| ATGCGAGCTTGGGTTCTAACCTGTTGCCG (site ATGCGAGCTCC) | 0.358 |
| ATGCGAGCTTGGGTTCTAACCTGTTGCCG (site ATGCGAGCTCG) | 0.815 |
| ATGCGAGCTTGGGTTCTAACCTGTTGCCG (site ATGCGAGCTCT) | 0.404 |
| ATGCGCCCTTGGGTTCTAACCTGTTGCCT (site ATGCACCCTAG) | 0.43 |
| ATGCGCCCTTGGGTTCTAACCTGTTGCCT (site ATGCGCCCTAG) | 0.717 |
| ATGCTACCTTGGGTTCTAACCTGTTGCGG (site ATGCTACCTCC) | 1.2 |
| ATGCTACCTTGGGTTCTAACCTGTTGCGG (site CACGGGGCTAG) | 0.0226 |
| ATGGGAGCTTGGGTTCTAACCTGTTGCGA (site AGGGGAGCTCC) | 0.627 |
| ATGGGAGCTTGGGTTCTAACCTGTTGCGA (site ATGGGAGCTTC) | 1.14 |

| Sequence | recombinant barcode read abundance (log10) |
| --- | --- |
| ATGGTGCCTTGGGTTCTAACCTGTTGCCT (site ATGGTGACTAG) | 0.098 |
| ATGGTGCCTTGGGTTCTAACCTGTTGCCT (site ATGGTGCCTAG) | 2.65 |
| ATGGTGCCTTGGGTTCTAACCTGTTGCCT (site ATGGTGGCTAG) | 0.417 |
| ATGGTGCCTTGGGTTCTAACCTGTTGCCT (site ATGGTGTCTAG) | 2.03 |
| ATGTAGGCTTGGGTTCTAACCTGTTGCCT (site ATGTAGGCTAG) | 0.137 |
| ATGTAGGCTTGGGTTCTAACCTGTTGCCT (site ATGTTAGCTAG) | 0.127 |
| ATGTATTCTTGGGTTCTAACCTGTTGCCT (site AACTATTCTAG) | 0.0758 |
| ATGTATTCTTGGGTTCTAACCTGTTGCCT (site ATGTATTCTAG) | 0.828 |
| ATGTCGTCTTGGGTTCTAACCTGTTGCCT (site AAGTCGTCTAG) | 0.0812 |
| ATGTCGTCTTGGGTTCTAACCTGTTGCCT (site ACGTCGTCTAG) | 0.296 |
| ATGTCGTCTTGGGTTCTAACCTGTTGCCT (site AGGTCGTCTAG) | 0.141 |
| ATGTCGTCTTGGGTTCTAACCTGTTGCCT (site ATGTCGTCTAG) | 1.13 |
| ATGTCTCCTTGGGTTCTAACCTGTTGCCT (site ATGTCTCCTAG) | 1 |
| ATGTCTCCTTGGGTTCTAACCTGTTGCCT (site CTGTCTCCTAG) | 0.0833 |
| ATGTCTCCTTGGGTTCTAACCTGTTGCCT (site GTGTCTCCTAG) | 0.0531 |
| ATGTCTCCTTGGGTTCTAACCTGTTGCCT (site TTGTCTCCTAG) | 0.228 |
| ATTAATCCTTGGGTTCTAACCTGTTGCCT (site ATTAAATCTAG) | 0.441 |
| ATTAATCCTTGGGTTCTAACCTGTTGCCT (site ATTAATCCTAG) | 0.0839 |
| ATTACTACTTGGGTTCTAACCTGTTGCCT (site AATACTACTAG) | 0.124 |
| ATTACTACTTGGGTTCTAACCTGTTGCCT (site ACTACTACTAG) | 0.0886 |
| ATTACTACTTGGGTTCTAACCTGTTGCCT (site AGTACTACTAG) | 0.343 |
| ATTACTACTTGGGTTCTAACCTGTTGCCT (site ATTACTACTAG) | 0.411 |

| Sequence | recombinant barcode read abundance (log10) |
| --- | --- |
| ATTAGGGCTTGGGTTCTAACCTGTTGCCG (site ATTAGGGCTCG) | 0.413 |
| ATTAGGGCTTGGGTTCTAACCTGTTGCCG (site ATTGGGGCTCT) | 0.192 |
| ATTCAAACTTGGGTTCTAACCTGTTGCCT (site ATTCAAACTAG) | 0.788 |
| ATTCAAACTTGGGTTCTAACCTGTTGCCT (site GTTCAAACTAT) | 0.088 |
| ATTCGGGCTTGGGTTCTAACCTGTTGCGT (site ATTCGAGCTGC) | 0.0603 |
| ATTCGGGCTTGGGTTCTAACCTGTTGCGT (site ATTCGGGCTAC) | 2.07 |
| ATTGGGTCTTGGGTTCTAACCTGTTGCCT (site ATTGGATCTAG) | 0.445 |
| ATTGGGTCTTGGGTTCTAACCTGTTGCCT (site ATTGGCTCTAG) | 0.0688 |
| ATTGGGTCTTGGGTTCTAACCTGTTGCCT (site ATTGGGTCTAG) | 0.818 |
| ATTGGGTCTTGGGTTCTAACCTGTTGCCT (site ATTGGTTCTAG) | 0.102 |
| ATTTAACCTTGGGTTCTAACCTGTTGCGT (site ATTTAACCTAC) | 2.11 |
| ATTTAACCTTGGGTTCTAACCTGTTGCGT (site GGGGTGTCTCG) | 0.0805 |
| ATTTCGACTTGGGTTCTAACCTGTTGCCT (site AATTCGACTAG) | 0.0716 |
| ATTTCGACTTGGGTTCTAACCTGTTGCCT (site ACTTCGACTAG) | 0.044 |
| ATTTCGACTTGGGTTCTAACCTGTTGCCT (site AGTTCGACTAG) | 0.142 |
| ATTTCGACTTGGGTTCTAACCTGTTGCCT (site ATTTCGACTAG) | 0.16 |
| CAAACATCTTGGGTTCTAACCTGTTGCCT (site CAAACAACTAG) | 0.129 |
| CAAACATCTTGGGTTCTAACCTGTTGCCT (site CAAACACCTAG) | 0.0425 |
| CAAACATCTTGGGTTCTAACCTGTTGCCT (site CAAACAGCTAG) | 0.0169 |
| CAAACATCTTGGGTTCTAACCTGTTGCCT (site CAAACATCTAG) | 0.162 |

Source: the supplement of paper PMC11208160
